Laboratory results reported in ChEMBL document CHEMBL1201862, “PubChem BioAssay data set” (2004).
Blank lines part the entries; values can stand above or below the molecule they belong to. Activity calls are given as the source filed them.

What was measured:
Format in all cases: functional
[1] = molecular target: T1, Sentrin-specific protease 7 (Homo sapiens, UniProt Q9BQF6);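 also: Luminescence-based dose-response confirmation of ultra-high-throughput screening hits, measuring inhibition of SENP7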
T1 sequence (Q9BQF6 whole entry): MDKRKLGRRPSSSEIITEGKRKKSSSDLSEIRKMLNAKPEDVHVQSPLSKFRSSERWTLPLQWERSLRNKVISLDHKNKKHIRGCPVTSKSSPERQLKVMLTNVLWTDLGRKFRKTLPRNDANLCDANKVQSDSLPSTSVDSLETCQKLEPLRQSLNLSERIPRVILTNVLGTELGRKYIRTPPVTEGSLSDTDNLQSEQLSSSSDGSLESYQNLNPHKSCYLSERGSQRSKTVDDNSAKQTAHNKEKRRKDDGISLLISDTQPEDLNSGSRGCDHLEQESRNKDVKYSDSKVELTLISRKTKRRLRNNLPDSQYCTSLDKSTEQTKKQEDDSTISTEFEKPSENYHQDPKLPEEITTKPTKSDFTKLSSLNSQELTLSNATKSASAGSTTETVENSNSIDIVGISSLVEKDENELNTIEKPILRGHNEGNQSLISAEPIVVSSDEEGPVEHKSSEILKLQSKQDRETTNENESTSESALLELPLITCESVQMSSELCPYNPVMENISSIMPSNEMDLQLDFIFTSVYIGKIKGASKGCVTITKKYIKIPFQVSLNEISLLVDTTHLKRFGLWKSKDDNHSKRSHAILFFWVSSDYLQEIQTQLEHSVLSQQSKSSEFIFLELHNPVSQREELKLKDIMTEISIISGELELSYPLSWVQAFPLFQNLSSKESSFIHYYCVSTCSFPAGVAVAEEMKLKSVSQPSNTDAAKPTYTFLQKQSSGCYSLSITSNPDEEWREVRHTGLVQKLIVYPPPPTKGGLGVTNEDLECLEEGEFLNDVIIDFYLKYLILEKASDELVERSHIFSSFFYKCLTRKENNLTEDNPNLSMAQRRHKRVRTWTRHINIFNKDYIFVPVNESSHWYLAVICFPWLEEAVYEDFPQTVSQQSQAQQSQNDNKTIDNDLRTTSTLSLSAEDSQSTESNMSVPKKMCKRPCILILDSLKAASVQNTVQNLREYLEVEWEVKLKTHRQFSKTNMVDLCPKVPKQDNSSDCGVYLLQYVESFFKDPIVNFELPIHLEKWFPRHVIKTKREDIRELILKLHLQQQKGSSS

[2] = molecular target: T2, Sentrin-specific protease 6 (Homo sapiens, UniProt Q9GZR1);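 also: Luminescence-based dose-response confirmatory assay of SENP6 inhibition, following up an ultra-high-throughput screen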
T2 sequence (Q9GZR1 whole entry): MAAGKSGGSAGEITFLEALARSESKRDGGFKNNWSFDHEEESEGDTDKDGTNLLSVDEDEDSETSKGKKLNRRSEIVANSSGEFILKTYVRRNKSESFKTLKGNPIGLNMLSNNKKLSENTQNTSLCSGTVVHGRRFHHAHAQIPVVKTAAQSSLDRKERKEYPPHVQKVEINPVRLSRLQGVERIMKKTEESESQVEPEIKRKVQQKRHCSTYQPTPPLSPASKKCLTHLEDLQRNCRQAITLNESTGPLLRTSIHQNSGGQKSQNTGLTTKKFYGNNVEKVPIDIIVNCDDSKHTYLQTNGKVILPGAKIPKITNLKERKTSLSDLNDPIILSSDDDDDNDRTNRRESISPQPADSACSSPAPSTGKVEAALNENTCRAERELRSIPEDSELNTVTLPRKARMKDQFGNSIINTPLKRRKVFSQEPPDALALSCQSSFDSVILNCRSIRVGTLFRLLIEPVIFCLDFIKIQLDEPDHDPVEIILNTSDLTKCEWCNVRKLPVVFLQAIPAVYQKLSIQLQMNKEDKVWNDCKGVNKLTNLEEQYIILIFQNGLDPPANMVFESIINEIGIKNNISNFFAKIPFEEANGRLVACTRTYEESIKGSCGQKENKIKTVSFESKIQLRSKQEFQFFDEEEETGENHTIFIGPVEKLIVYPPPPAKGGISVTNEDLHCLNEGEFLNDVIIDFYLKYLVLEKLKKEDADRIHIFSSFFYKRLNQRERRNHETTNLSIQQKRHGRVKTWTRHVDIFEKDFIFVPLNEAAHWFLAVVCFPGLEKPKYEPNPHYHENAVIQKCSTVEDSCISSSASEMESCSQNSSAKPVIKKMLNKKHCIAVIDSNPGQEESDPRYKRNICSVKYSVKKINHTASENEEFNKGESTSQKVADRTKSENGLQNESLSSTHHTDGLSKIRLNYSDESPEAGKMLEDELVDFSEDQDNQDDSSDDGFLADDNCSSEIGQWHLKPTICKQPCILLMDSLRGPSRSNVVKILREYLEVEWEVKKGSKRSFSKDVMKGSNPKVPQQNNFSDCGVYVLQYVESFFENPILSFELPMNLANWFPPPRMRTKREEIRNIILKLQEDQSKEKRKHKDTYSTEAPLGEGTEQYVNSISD

[3] = molecular target: Platelet-derived growth factor receptor beta (Homo sapiens, UniProt P09619);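 also: value comes from a kinome panel, with PDGFRB tested as one panel member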
[4] = molecular target: G protein-coupled receptor kinase 5 (Homo sapiens, UniProt P34947); test: Navigating the Kinome. Panel member name: GPRK5
[5] = molecular target: Platelet-derived growth factor receptor alpha (Homo sapiens, UniProt P16234); test: Navigating the Kinome. Panel member name: PDGFRA
Chain of Platelet-derived growth factor receptor alpha (P16234 whole entry): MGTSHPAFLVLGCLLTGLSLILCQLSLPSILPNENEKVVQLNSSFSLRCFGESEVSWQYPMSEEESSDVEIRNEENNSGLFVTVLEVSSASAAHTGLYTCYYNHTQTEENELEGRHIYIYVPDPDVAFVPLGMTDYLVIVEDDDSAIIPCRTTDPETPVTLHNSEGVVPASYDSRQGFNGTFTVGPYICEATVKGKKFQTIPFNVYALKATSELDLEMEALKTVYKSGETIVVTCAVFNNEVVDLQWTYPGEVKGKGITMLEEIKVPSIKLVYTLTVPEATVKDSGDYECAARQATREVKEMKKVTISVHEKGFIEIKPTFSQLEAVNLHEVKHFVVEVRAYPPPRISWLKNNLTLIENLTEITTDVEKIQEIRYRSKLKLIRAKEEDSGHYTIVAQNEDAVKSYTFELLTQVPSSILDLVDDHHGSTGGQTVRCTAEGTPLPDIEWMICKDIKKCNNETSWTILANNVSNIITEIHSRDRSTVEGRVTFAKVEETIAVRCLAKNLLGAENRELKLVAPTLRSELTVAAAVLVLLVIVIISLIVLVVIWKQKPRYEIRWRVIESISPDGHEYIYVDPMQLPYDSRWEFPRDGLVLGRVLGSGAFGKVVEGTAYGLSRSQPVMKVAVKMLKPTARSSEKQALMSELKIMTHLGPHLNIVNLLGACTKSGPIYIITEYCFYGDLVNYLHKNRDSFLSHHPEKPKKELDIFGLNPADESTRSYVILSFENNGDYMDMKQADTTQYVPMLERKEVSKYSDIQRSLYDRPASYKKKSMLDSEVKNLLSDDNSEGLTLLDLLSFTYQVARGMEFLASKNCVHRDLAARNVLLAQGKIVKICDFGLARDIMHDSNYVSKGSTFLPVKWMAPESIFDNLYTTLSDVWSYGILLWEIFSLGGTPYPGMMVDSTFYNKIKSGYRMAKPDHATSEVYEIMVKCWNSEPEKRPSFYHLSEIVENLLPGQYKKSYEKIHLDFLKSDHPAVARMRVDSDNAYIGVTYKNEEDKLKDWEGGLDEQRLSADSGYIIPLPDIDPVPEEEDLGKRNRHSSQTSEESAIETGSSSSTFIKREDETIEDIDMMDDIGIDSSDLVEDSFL

[6] = molecular target: cAMP-dependent protein kinase catalytic subunit alpha (Homo sapiens, UniProt P17612)
[7] = molecular target: Cyclin-dependent kinase 2 (Homo sapiens, UniProt P24941);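 also: CDK2 measured as one member of a broad kinome profiling panel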
[8] = molecular target: Casein kinase II subunit alpha (Homo sapiens, UniProt P68400)
Chain of Casein kinase II subunit alpha (P68400 whole entry, canonical isoform): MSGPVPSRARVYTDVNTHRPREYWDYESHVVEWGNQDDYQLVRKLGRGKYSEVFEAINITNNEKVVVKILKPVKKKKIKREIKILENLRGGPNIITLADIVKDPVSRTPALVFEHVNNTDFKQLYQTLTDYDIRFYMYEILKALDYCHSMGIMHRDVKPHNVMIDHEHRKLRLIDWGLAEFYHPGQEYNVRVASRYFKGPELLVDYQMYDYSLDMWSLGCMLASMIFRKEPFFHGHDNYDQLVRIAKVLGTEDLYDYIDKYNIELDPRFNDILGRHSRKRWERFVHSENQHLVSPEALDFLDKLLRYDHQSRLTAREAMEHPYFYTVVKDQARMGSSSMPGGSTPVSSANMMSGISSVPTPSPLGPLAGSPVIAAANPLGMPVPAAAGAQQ

[9] = molecular target: Casein kinase I isoform alpha (Homo sapiens, UniProt P48729)
Chain of Casein kinase I isoform alpha (P48729 whole entry, canonical isoform): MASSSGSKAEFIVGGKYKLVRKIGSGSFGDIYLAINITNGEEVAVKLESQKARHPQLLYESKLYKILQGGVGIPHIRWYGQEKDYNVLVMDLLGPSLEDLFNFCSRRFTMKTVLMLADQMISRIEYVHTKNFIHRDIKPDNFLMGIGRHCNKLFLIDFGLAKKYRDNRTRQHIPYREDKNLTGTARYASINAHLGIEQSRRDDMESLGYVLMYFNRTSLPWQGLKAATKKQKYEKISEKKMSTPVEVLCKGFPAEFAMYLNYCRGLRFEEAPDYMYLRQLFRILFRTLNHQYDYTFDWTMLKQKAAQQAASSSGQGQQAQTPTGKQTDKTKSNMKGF

[10] = molecular target: MAP kinase-activated protein kinase 3 (Homo sapiens, UniProt Q16644);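 also: value comes from a kinome-wide profiling panel in which MAPKAPK3 is one of the panel members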
Chain of MAP kinase-activated protein kinase 3 (Q16644 whole entry): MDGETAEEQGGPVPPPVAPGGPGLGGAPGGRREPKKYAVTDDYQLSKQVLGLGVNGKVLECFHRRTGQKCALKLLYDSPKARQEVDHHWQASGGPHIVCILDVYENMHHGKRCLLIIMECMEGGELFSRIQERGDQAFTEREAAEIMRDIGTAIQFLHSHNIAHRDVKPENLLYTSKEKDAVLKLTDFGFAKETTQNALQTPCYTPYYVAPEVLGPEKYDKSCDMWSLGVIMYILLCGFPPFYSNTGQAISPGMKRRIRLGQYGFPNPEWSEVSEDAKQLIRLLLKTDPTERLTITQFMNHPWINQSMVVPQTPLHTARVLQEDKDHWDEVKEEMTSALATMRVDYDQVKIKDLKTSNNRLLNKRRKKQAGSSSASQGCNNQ

Misshapen-like kinase 1 = Misshapen-like kinase 1 (Homo sapiens, UniProt Q8N4C8);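 also: kinome panel screen with MINK as the panel member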
Chain of Misshapen-like kinase 1 (Q8N4C8 whole entry): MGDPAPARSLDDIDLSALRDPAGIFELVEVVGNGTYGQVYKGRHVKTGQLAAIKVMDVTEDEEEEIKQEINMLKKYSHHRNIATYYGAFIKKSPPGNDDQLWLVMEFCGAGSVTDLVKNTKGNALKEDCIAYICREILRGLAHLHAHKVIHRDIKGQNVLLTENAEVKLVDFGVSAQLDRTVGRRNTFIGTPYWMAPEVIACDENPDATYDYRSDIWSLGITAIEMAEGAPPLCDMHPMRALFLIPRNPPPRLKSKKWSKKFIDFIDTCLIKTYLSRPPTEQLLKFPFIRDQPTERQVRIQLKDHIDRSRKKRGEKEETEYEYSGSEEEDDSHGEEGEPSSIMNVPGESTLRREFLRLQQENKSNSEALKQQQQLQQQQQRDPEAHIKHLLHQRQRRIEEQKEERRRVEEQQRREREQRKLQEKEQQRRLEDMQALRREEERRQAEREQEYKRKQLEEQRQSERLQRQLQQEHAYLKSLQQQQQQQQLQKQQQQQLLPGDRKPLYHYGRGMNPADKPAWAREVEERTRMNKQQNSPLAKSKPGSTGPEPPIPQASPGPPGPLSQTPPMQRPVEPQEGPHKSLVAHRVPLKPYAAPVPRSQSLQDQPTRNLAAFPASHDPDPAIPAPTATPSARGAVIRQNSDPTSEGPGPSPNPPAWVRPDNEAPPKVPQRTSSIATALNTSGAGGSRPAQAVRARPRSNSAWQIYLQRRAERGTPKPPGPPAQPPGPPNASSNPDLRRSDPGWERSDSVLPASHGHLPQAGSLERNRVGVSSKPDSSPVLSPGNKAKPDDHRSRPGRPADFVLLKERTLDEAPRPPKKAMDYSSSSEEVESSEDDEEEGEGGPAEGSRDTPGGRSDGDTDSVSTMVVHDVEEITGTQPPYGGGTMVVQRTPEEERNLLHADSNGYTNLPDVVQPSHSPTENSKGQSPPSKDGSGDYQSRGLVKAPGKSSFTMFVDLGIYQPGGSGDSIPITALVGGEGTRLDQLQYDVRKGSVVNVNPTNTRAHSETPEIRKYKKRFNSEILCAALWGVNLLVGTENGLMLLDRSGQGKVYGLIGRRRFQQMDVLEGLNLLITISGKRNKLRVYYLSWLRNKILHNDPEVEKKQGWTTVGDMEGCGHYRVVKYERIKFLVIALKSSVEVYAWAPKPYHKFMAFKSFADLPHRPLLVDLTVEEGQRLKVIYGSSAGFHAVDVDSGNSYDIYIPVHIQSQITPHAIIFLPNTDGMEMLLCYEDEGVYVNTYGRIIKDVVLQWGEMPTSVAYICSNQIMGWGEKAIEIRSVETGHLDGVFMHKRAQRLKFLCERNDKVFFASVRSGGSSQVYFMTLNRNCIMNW

[11] = molecular target: Homeodomain-interacting protein kinase 4 (Homo sapiens, UniProt Q8NE63)
Chain of Homeodomain-interacting protein kinase 4 (Q8NE63 whole entry): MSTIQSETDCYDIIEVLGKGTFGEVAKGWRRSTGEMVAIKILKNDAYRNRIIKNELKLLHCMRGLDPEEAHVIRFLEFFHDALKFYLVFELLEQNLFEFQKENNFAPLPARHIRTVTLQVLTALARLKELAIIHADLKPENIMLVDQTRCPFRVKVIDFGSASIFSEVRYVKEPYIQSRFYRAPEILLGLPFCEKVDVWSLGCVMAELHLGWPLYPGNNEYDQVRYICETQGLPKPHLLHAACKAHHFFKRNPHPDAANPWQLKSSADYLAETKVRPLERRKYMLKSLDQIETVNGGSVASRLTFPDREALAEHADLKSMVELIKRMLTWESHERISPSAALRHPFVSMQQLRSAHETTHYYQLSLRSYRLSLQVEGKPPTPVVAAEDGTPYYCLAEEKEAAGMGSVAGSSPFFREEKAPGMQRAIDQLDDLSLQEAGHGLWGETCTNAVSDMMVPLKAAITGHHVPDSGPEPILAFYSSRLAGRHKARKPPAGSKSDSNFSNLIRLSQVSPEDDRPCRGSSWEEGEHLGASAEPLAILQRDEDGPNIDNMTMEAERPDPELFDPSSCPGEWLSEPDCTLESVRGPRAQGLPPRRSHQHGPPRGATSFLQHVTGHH

[12] = molecular target: Cyclin-dependent kinase 1 (Homo sapiens, UniProt P06493);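 also: Kinome-wide panel profiling, with the target listed as panel member CDC2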
Chain of Cyclin-dependent kinase 1 (P06493 whole entry): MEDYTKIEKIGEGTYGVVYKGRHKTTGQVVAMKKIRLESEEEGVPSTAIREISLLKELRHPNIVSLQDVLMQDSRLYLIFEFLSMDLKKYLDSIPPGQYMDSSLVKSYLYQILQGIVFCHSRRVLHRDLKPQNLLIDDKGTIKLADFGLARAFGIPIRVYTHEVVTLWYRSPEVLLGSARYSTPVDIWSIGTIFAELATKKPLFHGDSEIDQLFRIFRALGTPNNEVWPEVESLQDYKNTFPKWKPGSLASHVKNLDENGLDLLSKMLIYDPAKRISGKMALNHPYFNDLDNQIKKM

[13] = molecular target: STE20-like serine/threonine-protein kinase (Homo sapiens, UniProt Q9H2G2)
[14] = molecular target: Serine/threonine-protein kinase PLK1 (Homo sapiens, UniProt P53350);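 also: PLK1 measured as one member of a kinome-wide profiling panel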
[15] = molecular target: Mitogen-activated protein kinase 12 (Homo sapiens, UniProt P53778);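 also: measured as one member of a kinome-wide kinase profiling panel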
Chain of Mitogen-activated protein kinase 12 (P53778 whole entry): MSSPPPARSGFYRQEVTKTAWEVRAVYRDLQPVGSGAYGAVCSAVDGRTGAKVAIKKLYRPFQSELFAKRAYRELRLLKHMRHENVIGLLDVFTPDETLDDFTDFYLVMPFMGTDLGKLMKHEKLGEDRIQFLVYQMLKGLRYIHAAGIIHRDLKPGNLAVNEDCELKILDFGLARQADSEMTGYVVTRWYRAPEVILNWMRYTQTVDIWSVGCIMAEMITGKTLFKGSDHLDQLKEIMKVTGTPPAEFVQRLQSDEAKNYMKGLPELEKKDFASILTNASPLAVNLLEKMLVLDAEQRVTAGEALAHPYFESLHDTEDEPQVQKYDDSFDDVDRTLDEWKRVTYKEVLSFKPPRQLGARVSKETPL

IC50 [1]: 5780 nM (active)
IC50 [2]: 4070 nM (active)
Structure (SMILES): COc1ccc(-n2c(NC(=O)c3ccco3)c(C#N)c3nc4ccccc4nc32)cc1

Ki [3]: > 2000 nM (inactive)
Ki [4]: 3160 nM (active)
Ki [5]: > 2510 nM (inactive)
Ki [6]: > 1260 nM (inactive)
Structure (SMILES): [2H]C([2H])([2H])Oc1cccc(C(C)NC(=O)c2sc(-c3ccncc3)nc2C)c1 (stereo unspecified)

Ki [7]: 25.1 nM (active)
Ki [8]: > 6310 nM (inactive)
Ki [9]: 316 nM (active)
Ki [10]: > 10000 nM (inactive)
Ki (Misshapen-like kinase 1): 20 nM (active)
Ki [11]: 2510 nM (active)
Ki [12]: 50.1 nM (active)
Ki [13]: 1580 nM (active)
Ki [14]: > 7940 nM (inactive)
Ki [15]: 398 nM (active)
Structure (SMILES): Cc1n[nH]c2ccc(-c3cncc(OCC(N)Cc4ccc(Cl)c(Cl)c4)c3)cc12 (stereo unspecified)
